Here are results for two compounds from US20080221082A1, “Ligands of Integrin Receptors” (priority 2000, published 2008).

Series [1] concerns the target T1, integrin αvβ3 (Homo sapiens, UniProt P05106+P06756).
T1 construct: from tissue; host or cells: human placenta
Briefly: Integrin αvβ3 assay (competition between vitronectin and the test substance for binding to solid phase-bound integrin αvβ3). The note with it: integrin αvβ3 from human placenta; human vitronectin as competing ligand; result in words only. On the procedure: For the identification and assessment of integrin αvβ3 ligands, a test system was used which was based on competition between the natural integrin αvβ3 ligand vitronectin and the test substance for binding to solid phase-bound integrin αvβ3.
• Microtiter plates coated with 250 ng/ml of integrin αvβ3 in 0.05 M NaHCO3 pH 9.2; 0.1 ml/well; • saturation with 1% powdered milk/assay buffer; 0.3 ml/well; 0.5 h/RT • 3× washing with 0.05% Tween 20/assay buffer • test substance in 0.1% powdered milk/assay buffer, 50 μl/well+0 μg/ml or 2 μg/ml of human vitronectin (Boehringer Ingelheim T007) in 0.1% powdered milk/assay buffer, 50 μl/well; 1 h/RT • 3× washing with 0.05% Tween 20/assay buffer • 1 μg/ml of anti human vitronectin antibody coupled to peroxidase (Kordia SAVN-APHRP) in 0.1% powdered milk/assay buffer; 0.1 ml/well; 1 h/RT • 3× washing with 0.05% Tween 20/assay buffer • 0.1 ml/well of peroxidase substrate • stop reaction with 0.1 ml/well of 2 M H2SO4 • measurement of the absorption at 450 nm
Integrin αvβ3: Human placenta is solubilized with Nonidet and integrin αvβ3 affinity-purified on a GRGDSPK matrix (elution with EDTA). Impurities due to integrin αIIbβ3 and human serum albumin, and the detergent and EDTA are removed by anion-exchange chromatography.
Assay buffer: 50 mM Tris pH 7.5; 100 mM NaCl; 1 mM CaCl2; 1 mM MgCl2; 10 μM MnCl2 […]

Consider `CC(C)(C)OC(=O)CC1CCC(=O)N(CC(=O)NCc2ccc(Nc3nc4ccccc4[nH]3)cc2)c2ccccc21` (centres unmarked) [Example 99, tert-Butyl [1-(2-{[4-(1H-benzimidazole-2-ylamino)benzyl]amino}-2-oxoethyl)-2-oxo-2,3,4,5-tetrahydro-1H-1-benzazepine-5-yl]acetate], for which the melting point was 231 °C (dec.).

Take `O=C(O)CC1CCC(=O)N(CC(=O)NCc2ccc(-c3nc4ccccc4[nH]3)cc2)c2ccccc21` (centres unmarked) [Example VII, [1-(2-{[4-(1H-Benzimidazol-2-yl)benzyl]amino}-2-oxoethyl)-2-oxo-2,3,4,5-tetrahydro-1H-1-benzazepin-5-yl]acetic acid]: the “IC50 values (concentration of the ligand at which 50% of the ligand is displaced)” value in series [1] is recorded as “best result”.
